Entries after “also recorded” stand apart in the source; their conditions may differ.
Columns and labels:
HM mCherry-GFP-LC3 cells = test: Autophagic flux assay by flow cytometry in HM mCherry-GFP-LC3 cells; assay type: cell-based, human; settings: compounds at 10 µM and 40 µM, 24 h, compared to control
Description: Consequently, the autolysosomes manifest red fluorescence. Consequently, the red fluorescence observed in the cells can be used as a marker for the formation of autolysosomes. The extent of red fluorescence can be used as an indicator of the efficiency of the flux from the autophagosome to the autolysosome. The bioactivity of all compounds on autophagic flux was evaluated using HM mCherry-GFP-LC3 cells by flow cytometry. In summary, the HM mCherryGFP-LC3 cells were cultured in 12-well plates for 24 h in DMEM (Dulbecco’s modified Eagle medium) supplemented with 10% fetal bovine serum (Gibco-BRL, 10099–141, Gaithersburg, MD, USA) in a 37 ◦C incubator with 5% CO2 at 95% humidity. Subsequently, the compounds were introduced directly to the culture medium, resulting in final concentrations of 10 µM and 40 µM. Rapamycin was used as a positive control. Twenty-four hours following the administration of the treatment, the cells were harvested and fixed using 4% paraformaldehyde (PFA). […] The data were analyzed using the FlowJo software v10 (BD Biosciences, Franklin Lakes, NJ, USA).
Data analyses were carried out by using GraphPad Prism 8 (GraphPad Software, Inc., La Jolla, CA, USA). The one-way ANOVA (analysis of variance) was performed using Dunnett’s post hoc test for comparison between the treated group and control group, and the values were expressed as mean ± standard deviation (SD). […]

[1] = for BBB permeability (in words): PAMPA-BBB; for Prediction of penetration to the CNS: class from logPe in PAMPA-BBB
Description: We used the parallel artificial membrane permeability assay for BBB (PAMPA-BBB) to determine the brain permeability of compounds 1 and 12 [22]. The compounds 1 and 12 were prepared with methyl alcohol at the concentration of 4 mg/mL. These were diluted with PBS (Phosphate Buffer Saline; pH = 7.4) to obtain the donor solutions 100 μg/mL PAMPA “sandwich”, consisting of a donor 96-well microliter plate and matching filter plate coated with 5 μL of 2% lecithin/dodecane. Compounds 1 and 12 were added to the wells (150 μL/well) of the pre-coated filter, and PBS was added to the wells (300 μL/well) of the receiver plate. The filter plate was coupled with the receiver plate, and the plate couple was incubated in the thermostat at 37 °C for 16 h. After incubation, the plates were separated, and the samples from each well of both the filter plate and the receiver plate were sucked out and analyzed by HPLC.

Structure (SMILES): C=C1[C@H](OC(=O)/C(C)=C/C)[C@@H](OC(C)=O)[C@@H](OC(C)=O)C(C)(C)/C=C/[C@H](C)[C@@H](OC(C)=O)[C@@]2(O)C[C@@](C)(OC(C)=O)[C@H](OC(=O)c3ccccc3)[C@@H]2[C@H]1OC(C)=O [Compound 12, euphpepluone F]
- bioactivity towards autophagic flux (HM mCherry-GFP-LC3 cells): most promising activity; also recorded: significant activity on autophagic flux
- BBB permeability (in words) [1]: relatively high BBB permeability; also recorded: ability to penetrate the blood–brain barrier (BBB)
- Prediction of penetration to the CNS [1]: CNS + (+ is logPe > −6.0)

Structure (SMILES): NC(=O)N1c2ccccc2C=Cc2ccccc21 [Carbamazepine, carbamazepine, reference compound]
- Prediction of penetration to the CNS [1]: CNS ++ (++ is logPe > −5.0)

Structure (SMILES): CC(C)NCC(O)COc1cccc2ccccc12 (centres unmarked) [Propranolol, propranolol, reference compound]
- Prediction of penetration to the CNS [1]: CNS ++ (++ is logPe > −5.0)

Structure (SMILES): C=C1C(OC(=O)C(C)C)C(O)C(OC(=O)c2ccccc2)C(C)(C)C=CC(C)C(OC(C)=O)C2(O)CC(C)(OC(C)=O)C(OC(=O)c3ccccc3)C2C1OC(C)=O (centres unmarked) [Compound 1, Euphjatrophane H]
- bioactivity towards autophagic flux (HM mCherry-GFP-LC3 cells): most promising activity; also recorded: significant activity on autophagic flux
- BBB permeability (in words) [1]: relatively high BBB permeability; also recorded: ability to penetrate the blood–brain barrier (BBB)
- Prediction of penetration to the CNS [1]: CNS ++ (++ is logPe > −5.0)
